From US5210077A, “Antibodies to cytokinins having a glycosylated isoprenoid side chain and immunoassay methods” (The United States of America as represented by the …, priority 1989, dated 1993) come the findings set out here.

Molecules are shown by their SMILES. “Also recorded” adds a separate entry of the source. Where two headings read alike, the source gives them in different places.

For assay [1], the system named is monoclonal antibody ATCC HB 9658. Nature of the assay: Inhibition ELISA, specificity of monoclonal antibody ATCC HB 9658. The conditions noted are these: for Relative I50 (relative to E-zeatin-O-β-D-glucopyranoside) / IC50: antibody ATCC HB 9658; for IC50: read-out: I50. It counts as binding, mouse. As to the method:
(§1) Antibodies were screened and further analyzed by solid-phase enzyme immunoassays as follows. Polyvinylchloride assay plates (Costar, Cambridge, MA), were coated with appropriate serum albumin conjugate (made with the O-glucoside derivative or the oxidized zeatin riboside, 10 μg/mL in PBS, 50 μL/well) for 4 h at room temperature or overnight at 4°. Plates were then washed with PBS containing 0.05% "Tween"-20 (PBS-Tween). Remaining sites were blocked by incubation for 1 h with 100 μL/well of 1% BSA in PBS-"Tween" solution (BSA-PBS-"Tween"). Plates were then rewashed and stored for up to 3 weeks at 4° in PBS containing sodium azide.
(§2) Direct binding (titration) and inhibition assays were performed with antibodies dissolved in BSA-PBS-"Tween", a diluent selected to minimize nonspecific interactions with the solid phase, and to suppress binding to the solid phase by antibodies specific for serum albumin.
Inhibition assay format was used to assess antibody specificity. […] In both formats, samples (50 μL/well) were generally applied to plates in triplicate and were incubated 1 h, with shaking. Plates were emptied, washed, rinsed with distilled water, and drained. HRP-labeled rabbit anti-mouse IgG (Zymed Laboratories, South San Francisco, CA) was added at an appropriate dilution (50 μL/well) and incubated for 1 h with shaking. The plates were then washed as before, and bound HRP detected by addition of 50 μL/well of substrate (1 mM ABTS and 6.7 mM H2 O2 in 60 mM sodium citrate buffer, pH 4.2). The absorbance was determined at 415 nm with a microplate reader (Model 308, Bio-Tek, Winooski, VT), generally after 15 min. In some cases, reactions were terminated by addition of 50 μL/well of 10% sodium dodecylsulfate.
Calculations were performed as follows. Assay data was fit to a logistic model. Asymptotic values were determined by inspection of the assay curves, and other coefficients were determined by linear regression. […] Relative affinities are expressed using E-zeatin riboside or E-zeatin-O-β-D-glucopyranoside as standards.
(In general: ELISA stands for enzyme-linked immunosorbent assay.)

Assay [2] has the same test system. In words: Competition ELISA with HRP conjugate of 9-(2-carboxyethyl)zeatin-O-β-D-glucopyranoside and monoclonal antibody ATCC HB 9658. It counts as binding, mouse. Particulars: for IC50: read-out: I50. How it is done: Competition ELISA using cytokinin conjugates of HRP was performed using polystyrene assay plates coated with mouse monoclonal antibodies specific for cytokinins. […] Immediately before use, assay plates were coated with 1 μg/mL of monoclonal IgG in BSA-PBS-Tween. Samples were mixed with an appropriate concentration of cytokinin-HRP conjugate and applied to assay wells in replicate (100 μL/well). After 1 h, wells were drained, washed, and rinsed. Bound conjugate was detected with ABTS substrate solution and quantified by determining absorbance at 415 nm. Calculations were performed as follows. Assay data was fit to a logistic model. Asymptotic values were determined by inspection of the assay curves, and other coefficients were determined by linear regression. […] Relative affinities are expressed using E-zeatin riboside or E-zeatin-O-β-D-glucopyranoside as standards.

The test system of assay [3] is mouse polyclonal antibodies. Nature of the assay: Inhibition ELISA for the mouse polyclonal antibodies. Particulars: for binding by the mouse polyclonal antibody (in words): inhibition ELISA; for Antibody Bound (%): inhibition ELISA with hapten, None = 100. It counts as binding. As to the method:
Mouse antibodies were elicited in BALB/c mice by two intraperitoneal inoculations at 3-week intervals with the bovine serum albumin conjugate of E-9-(2-carboxyethyl)zeatin-O-β-D-glucopyranoside emulsified in complete Freund's adjuvant. The dosage was 50-80 μg of conjugate in 0.1-0.2 mL. The mice were bled 1 week after the second injection, and sera were obtained, and tested for antibody.
as §1, §2
Inhibition assay format was used to assess antibody specificity. Antibody at an appropriate dilution determined by titration to give between 50 and 100% of maximal binding was mixed with hapten solution and preincubated for 1 h at room temperature prior to application to the coated wells. In both formats, samples (50 μL/well) were generally applied to plates in triplicate and were incubated 1 h, with shaking. Plates were emptied, washed, rinsed with distilled water, and drained. HRP-labeled rabbit anti-mouse IgG (Zymed Laboratories, South San Francisco, CA) was added at an appropriate dilution (50 μL/well) and incubated for 1 h with shaking. The plates were then washed as before, and bound HRP detected by addition of 50 μL/well of substrate (1 mM ABTS and 6.7 mM H2 O2 in 60 mM sodium citrate buffer, pH 4.2). The absorbance was determined at 415 nm with a microplate reader (Model 308, Bio-Tek, Winooski, VT), generally after 15 min. In some cases, reactions were terminated by addition of 50 μL/well of 10% sodium dodecylsulfate.

Regarding `CC(CO)CCNc1ncnc2nc[nH]c12` (racemic) [Dihydrozeatin, (RS)-dihydrozeatin], in assay [1] (inhibition ELISA), the “Relative I50 (relative to E-zeatin-O-β-D-glucopyranoside)” value (from here on “Relative I50”) is reported as more than 11000 and the IC50 was more than 1000 µM. For the same compound, in assay [2], the “Relative I50” value is more than 4800 and the IC50 was more than 100 µM.

For `C/C(=C\CNc1ncnc2c1ncn2[C@@H]1O[C@H](CO)[C@@H](O)[C@H]1O)CO` [9-ribosylzeatin], the “binding by antibody of clone 240 / ATCC HB 9658 (in words)” value in assay [1] was “do not bind”.

As to `C/C(=C\CNc1ncnc2c1ncn2CCC(=O)O)CO[C@@H]1O[C@H](CO)[C@@H](O)[C@H](O)[C@H]1O` [Carboxyethylzeatin-O-β-D-glucopyranoside, E-9-(2-carboxyethyl)zeatin-O-β-D-glucopyranoside], in assay [3], the “binding by the mouse polyclonal antibody (in words)” value is listed as “binds” and the “Antibody Bound (%)” value is listed as 76 ± 1%.

In the case of `C/C(=C\CNc1ncnc2[nH]cnc12)CO` [E-Zeatin, E-zeatin], in assay [3], the “binding by the mouse polyclonal antibody (in words)” value is “do not bind” and the “Antibody Bound (%)” value was 99 ± 3%. Further, in assay [1], the “binding by antibody of clone 240 / ATCC HB 9658 (in words)” value is recorded as “does not bind significantly; also recorded: do not bind”. Further, the “binding reduced relative to zeatin-O-β-D-glucopyranoside” value in assay [1] (inhibition ELISA, FIG. 4) was “at least 10,000 fold”. In addition, in assay [1] (inhibition ELISA), the “Relative I50” value is more than 1100 and the IC50 was more than 100 µM. In assay [2], the “Relative I50” value was more than 4800 and the IC50 is more than 100 µM.

On to `C/C(=C\CNc1ncnc2c1ncn2[C@@H]1O[C@H](CO)[C@@H](O)[C@H](O)[C@H]1O)CO` [E-Zeatin-9-β-D-glucopyranoside], for which the “binding by antibody of clone 240 / ATCC HB 9658 (in words)” value in assay [1] is on record as “do not bind”. The “Relative I50” value in assay [1] (inhibition ELISA) is more than 1100; in assay [2] it was more than 48000. Besides, the IC50 in assay [1] (inhibition ELISA) was more than 100 µM; in assay [2], more than 1000 µM.

Take `CC(=CCNc1ncnc2[nH]cnc12)COC1OC(CO)C(O)C(O)C1O` [E-Zeatin-O-β-D-glucopyranoside, E-zeatin-O-β-D-glucopyranoside]: the “Relative I50” value in assay [1] (inhibition ELISA) and in assay [2] was 1 each time. Also, the IC50 in assay [1] (inhibition ELISA) stood at 0.087 µM; in assay [2], 0.021 µM. Also, the “binding by antibody of clone 240 / ATCC HB 9658 (in words)” value in assay [1] (listed as E-zeatin-O-β-D-glucopyranoside) is “bind”; in assay [1] (listed as zeatin-O-β-D-glucopyranoside), “binds”.

For `CC(C)=CCNc1ncnc2nc[nH]c12` [Isopentenyladenine, N^6-2-isopentenyladenine], in assay [1] (inhibition ELISA), the “Relative I50” value is more than 11000 and the IC50 is more than 1000 µM. Also, in assay [2], the “Relative I50” value is more than 4800 and the IC50 is more than 100 µM.

On to `C/C(=C\CNc1ncnc2c1ncn2[C@@H]1O[C@H](CO)[C@@H](O)[C@H]1O)CO[C@@H]1O[C@H](CO)[C@@H](O)[C@H](O)[C@H]1O` [O-β-D-Glucopyranosyl-E-zeatin-9-riboside], for which the figures for the “Relative I50” value in assay [1] (inhibition ELISA) and in assay [2] were 3.4 and 1.7, respectively. Further, the IC50 in assay [1] (inhibition ELISA) came out at 0.3 µM; in assay [2] it was 0.035 µM.

For `C/C(=C\CN1C(=O)c2ccccc2C1=O)CO[C@@H]1O[C@H](CO)[C@@H](O)[C@H](O)[C@H]1O` [PBG, E-2-methyl-4-phthalimidobut-2-enyl-β-D-glucopyranoside], in assay [1] (inhibition ELISA), the “Relative I50” value worked out at 14 and the IC50 was 1.2 µM. In assay [2], the “Relative I50” value is listed as 23 and the IC50 amounted to 0.49 µM.

Take `CO[C@@H]1O[C@H](CO)[C@@H](O)[C@H](O)[C@H]1O` [β-Methylglucoside, β-methyl-D-glucopyranoside]: in assay [2], the “Relative I50” value is on record as more than 48000 and the IC50 is more than 1000 µM.
